This is an account of results in patent publication US20020195406A1, “Compositions and methods for disinfecting small diameter water lines” (priority 2001, published 2002).

For data set [1], the system named is dental unit biofilm bacteria. Particulars: 13% (130,000 ppm), used periodically in one facility; cited from earlier work.
In data set [2] the test system is bacteria in biofilms of dental water unit lines. As to the kind of experiment: Microbial counts for a dental water unit after three consecutive-day 30-min treatments with 500 ppm ClO2 (Example 3). The format is cell-based. As to the method: The level, however, is probably typical of the tap water in the UK, where this study was run. In this study the unit was treated as in Example 2, but on three consecutive days. Samples were taken of both the incoming supply water and from the unit before treatment on each day, with a 500 ppm ClO2 solution for 30-minutes, and also 1, 2 and 5 days after the last treatment. This schedule is represented in the chart below, along with the data derived from each water sample.

Data set [3] shares this test system. As to the kind of experiment: Microbial counts for a dental water unit after three staggered 30-min treatments with 500 ppm ClO2 (Example 2). The format is cell-based.
Data set [4] shares this test system. Briefly: Microbial counts for 6 dental water units after one 30-min treatment with 1000 ppm ClO2 (Example 1). Particulars: for Microbial count of unit effluent water: individual units 31-40; for Microbial count of unit effluent water, mean: mean of 6 units. The format is cell-based. As to the method:
Treatment: This example involved six dental water units, in a preliminary range finding study. The study was run during a particularly warm period of weather, where concomitant warmer municipal water temperatures would be expected to exacerbate biofilm contamination problems. The units were all of the same model, and were fitted with detachable water reservoirs. 100 ml of tap water was placed in each reservoir, and water was then run through the ultrasonic outlets for 30 seconds. Thereafter 30 ml of water was collected aseptically from each outlet. The reservoirs were then disconnected, and water run out of all outlets until the units ran dry. 100 ml of a 1000 ppm treatment solution, prepared as follows, was then placed in each reservoir:
10 ml of a 5.0% sodium chlorite solution was pipetted into a 100-ml volumetric flask already containing 75 ml of deionized water. To that was added 2.0 ml of 13% sodium hypochlorite solution (bleach). Immediately thereafter, 10.0 ml of a 1.9% citric acid solution was added, brought to volume with deionized water, sealed and the flask was agitated to mix the contents.
All outlets were then run until the solution came through each one. The solutions were then left in each unit for 30 minutes, after which the reservoirs were disconnected and the treatment solution was run out until all three outlets from each unit were dry. The reservoirs were then rinsed and filled with water (about 1 liter), and the water then run out of all three outlets until the reservoirs were empty.
[…] Samples were also collected from the tap from which water to operate the units was taken.
Microbial Culture: The water samples were vortex mixed, and then diluted in phosphate-buffered saline in two 10-fold dilutions. The samples were then plated onto yeast extract agar by means of a spiral plater. The plates were incubated at 22° C. for four days, after which they were counted.

Data set [5] shares this test system. As to the kind of experiment: Microbial counts from a dental water unit supplied with sterile water after a single 1000 ppm ClO2 30-minute exposure (Example 4). The format is cell-based. As to the method: Treatment: This study was run on a dental water unit that had been supplied with sterile water for a week, after its normal operation with tap water. The intent of the study was to determine if a unit, once disinfected, and not then re-exposed to tap water with excess levels of micro-organisms, would show the rebound in organism levels that has been observed in the previous examples. The unit was exposed to a single 1000 ppm solution of ClO2, prepared and applied for 30 minutes, as fully described in Example 1. Sampling and counting techniques were also the same.

The test system is the same in data set [6]. As to the kind of experiment: Microbial counts for a dental water unit after three staggered 30-min treatments with 500 ppm ClO2 (Example 2). The format is cell-based. The source says: The level, however, is probably typical of the tap water in the UK, where this study was run. In this study three staggered 30-minute exposures to 500 ppm ClO2 solution were made, and counts then made from 1 to 4 days after each treatment. The techniques of treatment and sampling were similar to those described in Example 1. The ClO2 solution was similarly prepared, using half the level of sodium chlorite and hypochlorite initially, after acidification with citric acid.
The source holds these as a separate data set.

Data set [7] concerns microorganisms in small diameter water lines. As to conditions: after 24 hours of treatment; approximately 10%; cited from earlier work.
The test system of a further data set is biofilm bacteria. As to conditions: free chlorine; cited from earlier work.
For data set [8] the following is noted: half reaction as printed; cited from earlier work.
The test system of another data set is biofilms. As to conditions: household bleach 5.25%, glutaraldehyde 3%, isopropanol 15.3%, cited from earlier work; for effluents from biofilms after contact: 15-hours contact; for recolonization returned to pretreatment levels by day: after 15-hours contact.

Values joined by “and” are separate entries in the source; they are usually repeats but may differ in a detail not shown here. Identical values can stand only once.

Consider `OCl` [hypochlorite], for which, in data set [1], the “effect on bacterial counts” value is given as “dramatic reductions in bacterial counts, but these rise again rather quickly”.
As for chlorine dioxide [ClO2], the “unit count below that of the incoming water” value in data set [2] (Day 4) stood at 0.9 logs; in [2] (Day 5), 0.8 logs; in [2] (one day after the first 500 ppm treatment (day 2)), 1.2 logs. Further, the “count in the issuing water higher than the supply water” value in data set [2] (Day 8, five days after the last treatment) is 1.0 log. For the same compound, the “Unit Count” value was 2.7 log cfu/ml in data set [2] (day 2, 1 day after first 30-min 500 ppm treatment); 1.8 log cfu/ml in data set [2] (day 3, 1 day after second consecutive 500 ppm treatment); 2.8 log cfu/ml in [2] (day 4, 1 day after third consecutive 500 ppm treatment); 2.3 log cfu/ml in data set [2] (day 5, 2 days after last 500 ppm treatment); 3.9 log cfu/ml in [2] (day 8, 5 days after last 500 ppm treatment); 0 cfu/ml in data set [5] (4th day post-application). Moreover, the Unit Count is 20 organisms per ml in data set [5] (days 2-3 post-application, numerical value of 1.3 logs) and 182 cfu/ml in data set [5] (one day after treatment, numerical value). Also, the “Unit Microbial Count” value turned out to be 5.83 log cfu/ml in [3] (day 7, seven days after first 500 ppm treatment, before second); 4.08 log cfu/ml in [3] (day 18, 7 days after third 500 ppm treatment); 2.66 log cfu/ml in data set [6] (day 1, one day after first 30-min 500 ppm treatment (day 0)); 4.66 log cfu/ml in [6] (day 4, four days after first 500 ppm treatment); 3.04 log cfu/ml in data set [6] (day 8, one day after second 500 ppm treatment); 4.18 log cfu/ml in [6] (day 11, four days after second 500 ppm treatment, before third). Further, the “Unit Microbial Count” value was determined as 1.60 log cfu/ml in data set [6] (day 12, one day after third 500 ppm treatment) and 3.15 log cfu/ml in [6] (day 15, four days after third 500 ppm treatment). In addition, in data set [4] (after day two vs T=0, 1000 ppm, 30 min), the “reduction in the effluent's cfu/ml” value is on record as 27 fold. For the same compound, the “difference from T=0” value in data set [4] (after day two, 1000 ppm, 30 min) came out at 1.43 logs. Further, in data set [4] (day 3 after treatment, 1000 ppm, 30 min), the “DWU effluent count relative to tap water” value was “approximated that of the tap water”. The “Microbial count of unit effluent water” value in data set [4] (1 day after 30-min treatment with 1000 ppm ClO2) is 1.90 log cfu/ml and 2.08 log cfu/ml and 2.45 log cfu/ml and 3.85 log cfu/ml and 2.30 log cfu/ml and 1.30 log cfu/ml; in data set [4] (2 days after 30-min treatment with 1000 ppm ClO2) it was 2.78 log cfu/ml and 3.56 log cfu/ml and 3.86 log cfu/ml and 3.32 log cfu/ml and 2.51 log cfu/ml and 3.03 log cfu/ml; in data set [4] (3 days after 30-min treatment with 1000 ppm ClO2), 3.94 log cfu/ml and 3.85 log cfu/ml and 5.25 log cfu/ml and 4.34 log cfu/ml and 2.62 log cfu/ml and 2.81 log cfu/ml. For the same compound, the “Microbial count of unit effluent water, mean” value in data set [4] (1 day after 30-min 1000 ppm ClO2) was determined as 2.31 log cfu/ml; in data set [4] (2 days after 30-min 1000 ppm ClO2) it was 3.18 log cfu/ml; in data set [4] (3 days after 30-min 1000 ppm ClO2), 3.80 log cfu/ml. Moreover, the “drop in bacterial colonies per ml of effluent water” value in data set [4] (one day after treatment vs T=0, 1000 ppm, 30 min) stood at 2.3 log. Besides, the “bacterial colonies per ml of effluent water” value in data set [4] (one day after treatment, numerical value of mean, 1000 ppm, 30 min) was 204 colonies per ml. Further, the “Microbial Counts, Unit Water” value is 2.26 log cfu/ml in data set [5] (day 8, 1 day after single 1000 ppm 30-min exposure, sterile water supply, unit active); 1.3 log cfu/ml in data set [5] (day 9, 2 days after exposure, sterile water supply, active); 1.3 log cfu/ml in data set [5] (day 10, 3 days after exposure, sterile water supply, active); 0 log cfu/ml in [5] (day 11, 4 days after exposure, sterile water supply, active); 3.88 log cfu/ml in [5] (day 14, 7 days after exposure, after passive weekend (days 12-13)). In data set [5] (subsequent 2 days after day 8), the further drop was found to be 10 fold. Moreover, the population drop entry in data set [5] (within a day of the ClO2 treatment) is on record as “about 40,500 microbial organism per ml of water”. Moreover, the “drop of unit count” value in [5] (within a day of the ClO2 treatment, from pre-treatment average of 4.61 logs) is reported as 2.35 log cfu/ml. Further, the “reduction in organisms in the effluent water” value in data set [6] (after the first 500 ppm treatment) is given as 83 fold. Moreover, in [6] (after the first 500 ppm treatment (day 0 to day 1)), the “reduction of unit's count” value was 1.92 logs.
As for povidone-iodine, in [7], the “numbers of bacteria after treatment” value was “greatly reduced” and the “regrowth of bacteria after treatment” value is on record as “quickly begin to rise after eight days”.
Consider `OCl` [hypochlorous acid], for which, in the data set with biofilm bacteria, the “resistance of biofilm bacteria relative to unattached cells” value was 150-3000 times. For the same compound, the oxidation potential in data set [8] was 1.49 V.
For `O=CCCCC=O` [glutaraldehyde], in the data set with biofilms, the “effluents from biofilms after contact” value was “free of recoverable bacteria” and the “recolonization returned to pretreatment levels by day” value was 3 days.
For the compound `CC(C)O` [isopropanol], in the data set on biofilms, the “effluents from biofilms after contact” value is recorded as “free of recoverable bacteria” and the “recolonization returned to pretreatment levels by day” value was 15 days.
